In ChEMBL document CHEMBL2202954, “The effect of PLC-γ2 inhibitors on the growth of human tumour cells” (2012):

How the values were obtained:
Format in all cases: functional
CAKI-1 = assay: Cytotoxicity against human Caki1 cells assessed as cellular growth at 10 uM by SRB assay
Hs-578T = assay: Cytotoxicity against human Hs578T cells assessed as cellular growth at 10 uM by SRB assay
SK-MEL-5 = assay: Cytotoxicity against human SK-MEL-5 cells assessed as cellular growth at 10 uM by SRB assay
NCI-H522 = assay: Cytotoxicity against human NCI-H522 cells assessed as cellular growth at 10 uM by SRB assay
UACC-62 = assay: Cytotoxicity against human UACC62 cells assessed as cellular growth at 10 uM by SRB assay
786-0 = assay: Cytotoxicity against human 786-0 cells assessed as cellular growth at 10 uM by SRB assay
T47D = assay: Cytotoxicity against human T47D cells assessed as cellular growth at 10 uM by SRB assay
NCI-H23 = assay: Cytotoxicity against human NCI-H23 cells assessed as cellular growth at 10 uM by SRB assay
HCT-116 = assay: Cytotoxicity against human HCT116 cells assessed as cellular growth at 10 uM by SRB assay
TK-10 = assay: Cytotoxicity against human TK10 cells assessed as cellular growth at 10 uM by SRB assay
A549 = assay: Cytotoxicity against human A549 cells assessed as cellular growth at 10 uM by SRB assay
RPMI-8226 = assay: Cytotoxicity against human RPMI8226 cells assessed as cellular growth at 10 uM by SRB assay
ACHN = assay: Cytotoxicity against human ACHN cells assessed as cellular growth at 10 uM by SRB assay
SN12C = assay: Cytotoxicity against human SN12C cells assessed as cellular growth at 10 uM by SRB assay
KM12 = assay: Cytotoxicity against human KM12 cells assessed as cellular growth at 10 uM by SRB assay
Malme-3M = assay: Cytotoxicity against human MALME-3M cells assessed as cellular growth at 10 uM by SRB assay
DU-145 = assay: Cytotoxicity against human DU145 cells assessed as cellular growth at 10 uM by SRB assay
SF-295 = assay: Cytotoxicity against human SF295 cells assessed as cellular growth at 10 uM by SRB assay
MDA-MB-435 = assay: Cytotoxicity against human MDA-MB-435 cells assessed as cellular growth at 10 uM by SRB assay
K562 = assay: Cytotoxicity against human K562 cells assessed as cellular growth at 10 uM by SRB assay

Cc1ccc2c(c1)N/C(=C/C(=O)c1ccc(Cl)cc1)C(=O)O2
Activity (CAKI-1): 105.93%
Activity (Hs-578T): 113.45%
Activity (SK-MEL-5): 102.04%
Activity (NCI-H522): 81.38%
Activity (UACC-62): 93.82%
Activity (786-0): 117.98%
Activity (T47D): 106.85%
Activity (NCI-H23): 98.65%
Activity (HCT-116): 105.71%
Activity (TK-10): 131.96%
Activity (A549): 92.75%
Activity (RPMI-8226): 64.3%
Activity (ACHN): 103.68%
Activity (SN12C): 93.53%
Activity (KM12): 102.59%
Activity (Malme-3M): 99.95%
Activity (DU-145): 112.1%
Activity (SF-295): 113.06%
Activity (MDA-MB-435): 105.53%
Activity (K562): 99.7%

O=C(NCc1cccnc1)c1sc2cc([N+](=O)[O-])ccc2c1Cl
Activity (CAKI-1): 85.26%
Activity (Hs-578T): 92.59%
Activity (SK-MEL-5): 96.88%
Activity (NCI-H522): 97.09%
Activity (UACC-62): 89.48%
Activity (786-0): 96.95%
Activity (T47D): 84.08%
Activity (NCI-H23): 97.31%
Activity (HCT-116): 99.66%
Activity (TK-10): 122.07%
Activity (A549): 91.87%
Activity (RPMI-8226): 94.49%
Activity (ACHN): 106.03%
Activity (SN12C): 92.4%
Activity (KM12): 96.39%
Activity (Malme-3M): 105.28%
Activity (DU-145): 105.44%
Activity (SF-295): 92.94%
Activity (MDA-MB-435): 95.22%
Activity (K562): 93.09%

CC1(C)CCc2cc(-c3ccn(S(=O)(=O)c4cccc(C(F)(F)F)c4)n3)ccc2O1
Activity (CAKI-1): 105.83%
Activity (Hs-578T): 107.85%
Activity (SK-MEL-5): 69.29%
Activity (NCI-H522): 87.1%
Activity (UACC-62): 84.21%
Activity (786-0): 85.72%
Activity (T47D): 66.31%
Activity (NCI-H23): 81.53%
Activity (HCT-116): 74.24%
Activity (TK-10): 82.31%
Activity (A549): 80.37%
Activity (RPMI-8226): 68.84%
Activity (ACHN): 109.2%
Activity (SN12C): 91.59%
Activity (KM12): 98.53%
Activity (Malme-3M): 102.22%
Activity (DU-145): 98.46%
Activity (SF-295): 108.32%
Activity (MDA-MB-435): 97.38%
Activity (K562): 63.16%

COc1cccc(C(=O)Nc2nc3ccc(Cl)cc3s2)c1
Activity (CAKI-1): 68.42%
Activity (Hs-578T): 110.55%
Activity (SK-MEL-5): 81.61%
Activity (NCI-H522): 78.29%
Activity (UACC-62): 87.44%
Activity (786-0): 98.19%
Activity (T47D): 79.7%
Activity (NCI-H23): 81.36%
Activity (HCT-116): 92.95%
Activity (TK-10): 88.7%
Activity (A549): 74.01%
Activity (RPMI-8226): 84.4%
Activity (ACHN): 91.34%
Activity (SN12C): 101.74%
Activity (KM12): 49.84%
Activity (Malme-3M): 95.69%
Activity (DU-145): 104.09%
Activity (SF-295): 67.73%
Activity (MDA-MB-435): 34%
Activity (K562): 49%

Oc1ccccc1-c1nc(-c2cccs2)no1
Activity (CAKI-1): 97.52%
Activity (Hs-578T): 93.55%
Activity (SK-MEL-5): 88.2%
Activity (NCI-H522): 96.76%
Activity (UACC-62): 89.11%
Activity (786-0): 101.07%
Activity (T47D): 76.43%
Activity (NCI-H23): 94.82%
Activity (HCT-116): 104.63%
Activity (TK-10): 89.67%
Activity (A549): 99.05%
Activity (RPMI-8226): 87.52%
Activity (ACHN): 98.95%
Activity (SN12C): 90.61%
Activity (KM12): 100.01%
Activity (Malme-3M): 105.64%
Activity (DU-145): 114.11%
Activity (SF-295): 109.56%
Activity (MDA-MB-435): 112.76%
Activity (K562): 96.52%

Clc1ccccc1Nc1nnc(-c2ccncc2)s1
Activity (CAKI-1): 90.5%
Activity (Hs-578T): 94.94%
Activity (SK-MEL-5): 97.75%
Activity (NCI-H522): 98.62%
Activity (UACC-62): 95.3%
Activity (786-0): 80.21%
Activity (T47D): 89.46%
Activity (NCI-H23): 102%
Activity (HCT-116): 101.59%
Activity (TK-10): 110.92%
Activity (A549): 94.98%
Activity (RPMI-8226): 89.16%
Activity (ACHN): 104.09%
Activity (SN12C): 86%
Activity (KM12): 107.17%
Activity (Malme-3M): 108.85%
Activity (SF-295): 88.68%
Activity (MDA-MB-435): 93.62%
Activity (K562): 101.4%

COc1ccc(Cl)cc1C(=O)Nc1nc2ccc(Cl)cc2s1
Activity (CAKI-1): 84.36%
Activity (Hs-578T): 102.47%
Activity (SK-MEL-5): 92.79%
Activity (NCI-H522): 99.37%
Activity (UACC-62): 91.53%
Activity (786-0): 75.8%
Activity (T47D): 47.23%
Activity (NCI-H23): 90.46%
Activity (HCT-116): 53.23%
Activity (TK-10): 126.89%
Activity (A549): 76.66%
Activity (RPMI-8226): 80.55%
Activity (ACHN): 85.89%
Activity (SN12C): 91.7%
Activity (KM12): 94.77%
Activity (Malme-3M): 83.31%
Activity (DU-145): 94.89%
Activity (SF-295): 169.8%
Activity (MDA-MB-435): 97.59%
Activity (K562): 86.76%

COc1ccc2[nH]c(C(=O)NCc3ccccc3)cc2c1
Activity (CAKI-1): 87.15%
Activity (Hs-578T): 112.57%
Activity (SK-MEL-5): 97.92%
Activity (NCI-H522): 90.46%
Activity (UACC-62): 91.05%
Activity (786-0): 103.19%
Activity (T47D): 85.87%
Activity (NCI-H23): 89.11%
Activity (HCT-116): 94.88%
Activity (TK-10): 120.94%
Activity (A549): 100.34%
Activity (RPMI-8226): 90.52%
Activity (ACHN): 94.48%
Activity (SN12C): 97.3%
Activity (KM12): 111.34%
Activity (Malme-3M): 88.8%
Activity (DU-145): 111.13%
Activity (SF-295): 131.65%
Activity (MDA-MB-435): 104.78%
Activity (K562): 92.68%

COc1cc(/C=c2/sc3nc4ccccc4n3c2=O)cc(I)c1O
Activity (CAKI-1): 79.77%
Activity (Hs-578T): 107.68%
Activity (SK-MEL-5): 81.43%
Activity (NCI-H522): 99.27%
Activity (UACC-62): 79.91%
Activity (786-0): 97.48%
Activity (T47D): 82.96%
Activity (NCI-H23): 94.22%
Activity (HCT-116): 98.72%
Activity (TK-10): 116.5%
Activity (A549): 88.66%
Activity (RPMI-8226): 74.12%
Activity (ACHN): 107.3%
Activity (SN12C): 101.23%
Activity (KM12): 80.63%
Activity (Malme-3M): 109%
Activity (DU-145): 102.39%
Activity (SF-295): 88.17%
Activity (MDA-MB-435): 97.54%
Activity (K562): 51.46%

O=S(=O)(Oc1ccc(-c2cnc3ccccc3n2)cc1)c1ccccc1
Activity (CAKI-1): 100.14%
Activity (Hs-578T): 145.79%
Activity (SK-MEL-5): 92.11%
Activity (NCI-H522): 78.75%
Activity (UACC-62): 78.48%
Activity (786-0): 92.9%
Activity (T47D): 86.45%
Activity (NCI-H23): 96.29%
Activity (HCT-116): 94.15%
Activity (TK-10): 82.7%
Activity (A549): 95.36%
Activity (RPMI-8226): 87.36%
Activity (ACHN): 103.61%
Activity (SN12C): 95.17%
Activity (KM12): 111.44%
Activity (Malme-3M): 92.27%
Activity (DU-145): 107.72%
Activity (SF-295): 94.02%
Activity (MDA-MB-435): 96.88%
Activity (K562): 81.89%

Cc1ccc(CNC(=O)c2[nH]c3ccccc3c2Cl)cc1
Activity (CAKI-1): 90.46%
Activity (Hs-578T): 95.86%
Activity (SK-MEL-5): 99.25%
Activity (NCI-H522): 106.22%
Activity (UACC-62): 100.21%
Activity (786-0): 102.13%
Activity (T47D): 84.33%
Activity (NCI-H23): 95.25%
Activity (HCT-116): 107.58%
Activity (TK-10): 124.52%
Activity (A549): 96.66%
Activity (RPMI-8226): 101.73%
Activity (ACHN): 112.34%
Activity (SN12C): 99.14%
Activity (KM12): 89.46%
Activity (Malme-3M): 116.06%
Activity (DU-145): 97.89%
Activity (SF-295): 94.21%
Activity (K562): 100.85%
